Tests used:
Design in all cases: scale not given here
GALAP Galium [1] = assay: Postemergence herbicidal evaluation, GALAP; type: in vivo, Galium aparine; conditions: postemergence spray, rated about two-three weeks after treatment
Outline: (§1)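 Visual injury rating ~2–3 wk post-spray; replicate tests averaged. Two-week-old seedlings; foliar spray at 40 psi; 0.006–0.400 kg ai/ha in 80/20 acetone/water + 1.0% methylated seed oil.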

[2] = tested on: CHEAL Lambsquarters, Common; assay: Postemergence herbicidal evaluation, CHEAL; type: in vivo, Chenopodium album, L.; conditions: postemergence spray, rated about two-three weeks after treatment
Outline: as §1

SETVI Foxtail, Green [3] = assay: Postemergence herbicidal evaluation, SETVI; type: in vivo, Setaria viridis, (L.) Beau; conditions: postemergence spray, rated about two-three weeks after treatment
Outline: as §1

ECHOG Barnyardgrass [4] = assay: Postemergence herbicidal evaluation, ECHOG; type: in vivo, Echinochloa crus-galli, (L.) Beau; conditions: postemergence spray, rated about two-three weeks after treatment
Outline: as §1

ZEAMX Corn, Field [5] = assay: Postemergence herbicidal evaluation, ZEAMX; type: in vivo, Zea mays, L. (Sammel-Bezeichnung); conditions: postemergence spray, rated about two-three weeks after treatment
Outline: as §1

CASOB Sicklepod [6] = assay: Preemergence herbicidal evaluation, CASOB; type: in vivo, Cassia obtusifolia, L.; conditions: preemergence
Outline: (§2)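 Preemergence soil spray: aqueous acetone, ~0.013–0.800 kg/ha, applied right after sowing (seed/potting-soil mix over ~1 in soil). Greenhouse, routine watering. Scored 4–5 wk post-treatment on a rating scale.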

SETVI Foxtail, Green [7] = assay: Preemergence herbicidal evaluation, SETVI; type: in vivo, Setaria viridis, (L.) Beau; conditions: preemergence
Outline: as §2

ABUTH Velvetleaf [8] = assay: Postemergence herbicidal evaluation, ABUTH; type: in vivo, Abutilon theophrasti, Medic.; conditions: postemergence spray, rated about two-three weeks after treatment
Outline: as §1

[9] = tested on: IPOHE Morningglory, Ivyleaf; assay: Preemergence herbicidal evaluation, IPOHE; type: in vivo, Ipomoea hederacea, (L.) Jacq.; conditions: preemergence
Outline: as §2

[10] = tested on: IPOHE Morningglory, Ivyleaf; assay: Postemergence herbicidal evaluation, IPOHE; type: in vivo, Ipomoea hederacea, (L.) Jacq.; conditions: postemergence spray, rated about two-three weeks after treatment
Outline: as §1

ABUTH Velvetleaf [11] = assay: Preemergence herbicidal evaluation, ABUTH; type: in vivo, Abutilon theophrasti, Medic.; conditions: preemergence
Outline: as §2

ORYSAT Rice, Tebonnet [12] = assay: Preemergence herbicidal evaluation, ORYSAT; type: in vivo, Oryza sativa, (L.); conditions: preemergence
Outline: as §2

ZEAMX Corn, Field [13] = assay: Preemergence herbicidal evaluation, ZEAMX; type: in vivo, Zea mays, L. (Sammel-Bezeichnung); conditions: preemergence
Outline: as §2

GLXMAW Soybean, Williams [14] = assay: Preemergence herbicidal evaluation, GLXMAW; type: in vivo, Glycine max, (L.) Merr. cv Williams; conditions: preemergence
Outline: as §2

CASOB Sicklepod [15] = assay: Postemergence herbicidal evaluation, CASOB; type: in vivo, Cassia obtusifolia, L.; conditions: postemergence spray, rated about two-three weeks after treatment
Outline: as §1

AMBEL Ragweed, Common [16] = assay: Preemergence herbicidal evaluation, AMBEL; type: in vivo, Ambrosia artemisifolia, L.; conditions: preemergence
Outline: as §2

[17] = tested on: CHEAL Lambsquarters, Common; assay: Preemergence herbicidal evaluation, CHEAL; type: in vivo, Chenopodium album, L.; conditions: preemergence
Outline: as §2

ORYSAT Rice, Tebonnet [18] = assay: Postemergence herbicidal evaluation, ORYSAT; type: in vivo, Oryza sativa, (L.); conditions: postemergence spray, rated about two-three weeks after treatment
Outline: as §1

[19] = tested on: TRZAWR Wheat, Winter, cv Riband; assay: Preemergence herbicidal evaluation, TRZAWR; type: in vivo, Triticum aestivum; conditions: preemergence
Outline: as §2

GLXMAW Soybean, Williams [20] = assay: Postemergence herbicidal evaluation, GLXMAW; type: in vivo, Glycine max, (L.) Merr. cv Williams; conditions: postemergence spray, rated about two-three weeks after treatment
Outline: as §1

[21] = tested on: TRZAWR Wheat, Winter, cv Riband; assay: Postemergence herbicidal evaluation, TRZAWR; type: in vivo, Triticum aestivum; conditions: postemergence spray, rated about two-three weeks after treatment
Outline: as §1

GALAP Galium [22] = assay: Preemergence herbicidal evaluation, GALAP; type: in vivo, Galium aparine; conditions: preemergence
Outline: as §2

ECHOG Barnyardgrass [23] = assay: Preemergence herbicidal evaluation, ECHOG; type: in vivo, Echinochloa crus-galli, (L.) Beau; conditions: preemergence
Outline: as §2

AMBEL Ragweed, Common [24] = assay: Postemergence herbicidal evaluation, AMBEL; type: in vivo, Ambrosia artemisifolia, L.; conditions: postemergence spray, rated about two-three weeks after treatment
Outline: as §1

COC(=O)C(C)Oc1ccc(C)cc1-n1nnc2cc(F)c(-n3c(=O)cc(C(F)(F)F)n(C)c3=O)cc21 (centres unmarked) [Example 41]
Postemergence herbicidal rating GALAP (GALAP Galium [1]; 0.008 kg/ha): 0.0 | Postemergence herbicidal rating GALAP (GALAP Galium [1]; 0.016 kg/ha): 1.0 | Postemergence herbicidal rating GALAP (GALAP Galium [1]; 0.032 kg/ha): 3.0 | Postemergence herbicidal rating GALAP (GALAP Galium [1]; 0.062 kg/ha): 3.0 | Postemergence herbicidal rating CHEAL ([2]; 0.008 kg/ha): 2.0 | Postemergence herbicidal rating CHEAL ([2]; 0.016 kg/ha): 2.0 | Postemergence herbicidal rating CHEAL ([2]; 0.032 kg/ha): 4.0 | Postemergence herbicidal rating CHEAL ([2]; 0.062 kg/ha): 5.0 | Postemergence herbicidal rating SETVI (SETVI Foxtail, Green [3]; 0.008 kg/ha): 7.0 | Postemergence herbicidal rating SETVI (SETVI Foxtail, Green [3]; 0.016 kg/ha): 9.0 | Postemergence herbicidal rating SETVI (SETVI Foxtail, Green [3]; 0.032 kg/ha): 9.0 | Postemergence herbicidal rating SETVI (SETVI Foxtail, Green [3]; 0.062 kg/ha): 9.0 | Postemergence herbicidal rating ECHCG (ECHOG Barnyardgrass [4]; 0.008 kg/ha): 6. | Postemergence herbicidal rating ECHCG (ECHOG Barnyardgrass [4]; 0.016 kg/ha): 9.0 | Postemergence herbicidal rating ECHCG (ECHOG Barnyardgrass [4]; 0.032 kg/ha): 9.0 | Postemergence herbicidal rating ECHCG (ECHOG Barnyardgrass [4]; 0.062 kg/ha): 9.0 | Postemergence herbicidal rating ZEAMX (ZEAMX Corn, Field [5]; 0.008 kg/ha): 6.5 | Postemergence herbicidal rating ZEAMX (ZEAMX Corn, Field [5]; 0.016 kg/ha): 8.0 | Postemergence herbicidal rating ZEAMX (ZEAMX Corn, Field [5]; 0.032 kg/ha): 8.0 | Postemergence herbicidal rating ZEAMX (ZEAMX Corn, Field [5]; 0.062 kg/ha): 9.0 | CASOB herbicidal rating (CASOB Sicklepod [6]; rate 0.016 kg/ha): 0.0 | CASOB herbicidal rating (CASOB Sicklepod [6]; rate 0.032 kg/ha): 0.0 | CASOB herbicidal rating (CASOB Sicklepod [6]; rate 0.062 kg/ha): 0.0 | SETVI herbicidal rating (SETVI Foxtail, Green [7]; rate 0.016 kg/ha): 0.0 | SETVI herbicidal rating (SETVI Foxtail, Green [7]; rate 0.032 kg/ha): 0.0 | SETVI herbicidal rating (SETVI Foxtail, Green [7]; rate 0.062 kg/ha): 0.0 | SETVI herbicidal rating (SETVI Foxtail, Green [7]; rate 0.125 kg/ha): 9.0 | Postemergence herbicidal rating ABUTH (ABUTH Velvetleaf [8]; 0.008 kg/ha): 9.0 | Postemergence herbicidal rating ABUTH (ABUTH Velvetleaf [8]; 0.016 kg/ha): 9.0 | Postemergence herbicidal rating ABUTH (ABUTH Velvetleaf [8]; 0.032 kg/ha): 9.0 | Postemergence herbicidal rating ABUTH (ABUTH Velvetleaf [8]; 0.062 kg/ha): 9.0 | IPOHE herbicidal rating ([9]; rate 0.016 kg/ha): 0.0 | IPOHE herbicidal rating ([9]; rate 0.032 kg/ha): 0.0 | IPOHE herbicidal rating ([9]; rate 0.062 kg/ha): 0.0 | IPOHE herbicidal rating ([9]; rate 0.125 kg/ha): 9.0 | Postemergence herbicidal rating IPOHE ([10]; 0.008 kg/ha): 9.0 | Postemergence herbicidal rating IPOHE ([10]; 0.016 kg/ha): 9.0 | Postemergence herbicidal rating IPOHE ([10]; 0.032 kg/ha): 9.0 | Postemergence herbicidal rating IPOHE ([10]; 0.062 kg/ha): 9.0 | ABUTH herbicidal rating (ABUTH Velvetleaf [11]; rate 0.016 kg/ha): 4.0 | ABUTH herbicidal rating (ABUTH Velvetleaf [11]; rate 0.032 kg/ha): 4.0 | ABUTH herbicidal rating (ABUTH Velvetleaf [11]; rate 0.062 kg/ha): 9.0 | ABUTH herbicidal rating (ABUTH Velvetleaf [11]; rate 0.125 kg/ha): 9.0 | ORYSAT herbicidal rating (ORYSAT Rice, Tebonnet [12]; rate 0.016 kg/ha): 0.0 | ORYSAT herbicidal rating (ORYSAT Rice, Tebonnet [12]; rate 0.032 kg/ha): 0.0 | ORYSAT herbicidal rating (ORYSAT Rice, Tebonnet [12]; rate 0.062 kg/ha): 3.0 | ORYSAT herbicidal rating (ORYSAT Rice, Tebonnet [12]; rate 0.125 kg/ha): 4.0 | ZEAMX herbicidal rating (ZEAMX Corn, Field [13]; rate 0.016 kg/ha): 0.0 | ZEAMX herbicidal rating (ZEAMX Corn, Field [13]; rate 0.032 kg/ha): 0.0 | ZEAMX herbicidal rating (ZEAMX Corn, Field [13]; rate 0.062 kg/ha): 0.0 | ZEAMX herbicidal rating (ZEAMX Corn, Field [13]; rate 0.125 kg/ha): 0.0 | GLXMAW herbicidal rating (GLXMAW Soybean, Williams [14]; rate 0.016 kg/ha): 0.0 | GLXMAW herbicidal rating (GLXMAW Soybean, Williams [14]; rate 0.032 kg/ha): 0.0 | GLXMAW herbicidal rating (GLXMAW Soybean, Williams [14]; rate 0.062 kg/ha): 2.0 | GLXMAW herbicidal rating (GLXMAW Soybean, Williams [14]; rate 0.125 kg/ha): 2.0 | Postemergence herbicidal rating CASOB (CASOB Sicklepod [15]; 0.008 kg/ha): 1.0 | Postemergence herbicidal rating CASOB (CASOB Sicklepod [15]; 0.016 kg/ha): 3.0 | Postemergence herbicidal rating CASOB (CASOB Sicklepod [15]; 0.032 kg/ha): 4.0 | Postemergence herbicidal rating CASOB (CASOB Sicklepod [15]; 0.062 kg/ha): 9.0 | AMBEL herbicidal rating (AMBEL Ragweed, Common [16]; rate 0.016 kg/ha): 0.0 | AMBEL herbicidal rating (AMBEL Ragweed, Common [16]; rate 0.032 kg/ha): 0.0 | AMBEL herbicidal rating (AMBEL Ragweed, Common [16]; rate 0.062 kg/ha): 0.0 | AMBEL herbicidal rating (AMBEL Ragweed, Common [16]; rate 0.125 kg/ha): 7.0 | CHEAL herbicidal rating ([17]; rate 0.016 kg/ha): 4.0 | CHEAL herbicidal rating ([17]; rate 0.032 kg/ha): 9.0 | CHEAL herbicidal rating ([17]; rate 0.062 kg/ha): 9.0 | CHEAL herbicidal rating ([17]; rate 0.125 kg/ha): 9.0 | Postemergence herbicidal rating ORYSAT (ORYSAT Rice, Tebonnet [18]; 0.008 kg/ha): 1.5 | Postemergence herbicidal rating ORYSAT (ORYSAT Rice, Tebonnet [18]; 0.016 kg/ha): 2.5 | Postemergence herbicidal rating ORYSAT (ORYSAT Rice, Tebonnet [18]; 0.032 kg/ha): 7.0 | Postemergence herbicidal rating ORYSAT (ORYSAT Rice, Tebonnet [18]; 0.062 kg/ha): 8.0 | TRZAWR herbicidal rating ([19]; rate 0.016 kg/ha): 0.0 | TRZAWR herbicidal rating ([19]; rate 0.032 kg/ha): 0.0 | TRZAWR herbicidal rating ([19]; rate 0.062 kg/ha): 0.0 | TRZAWR herbicidal rating ([19]; rate 0.125 kg/ha): 1.0 | Postemergence herbicidal rating GLXMAW (GLXMAW Soybean, Williams [20]; 0.008 kg/ha): 5.5 | Postemergence herbicidal rating GLXMAW (GLXMAW Soybean, Williams [20]; 0.016 kg/ha): 7.5 | Postemergence herbicidal rating GLXMAW (GLXMAW Soybean, Williams [20]; 0.032 kg/ha): 8.0 | Postemergence herbicidal rating GLXMAW (GLXMAW Soybean, Williams [20]; 0.062 kg/ha): 8.0 | Postemergence herbicidal rating TRZAWR ([21]; 0.008 kg/ha): 6.0 | Postemergence herbicidal rating TRZAWR ([21]; 0.016 kg/ha): 7.0 | Postemergence herbicidal rating TRZAWR ([21]; 0.032 kg/ha): 8.0 | Postemergence herbicidal rating TRZAWR ([21]; 0.062 kg/ha): 8.0 | GALAP herbicidal rating (GALAP Galium [22]; rate 0.016 kg/ha): 0.0 | GALAP herbicidal rating (GALAP Galium [22]; rate 0.032 kg/ha): 0.0 | GALAP herbicidal rating (GALAP Galium [22]; rate 0.062 kg/ha): 0.0 | GALAP herbicidal rating (GALAP Galium [22]; rate 0.125 kg/ha): 0.0 | ECHCG herbicidal rating (ECHOG Barnyardgrass [23]; rate 0.016 kg/ha): 0.0 | ECHCG herbicidal rating (ECHOG Barnyardgrass [23]; rate 0.032 kg/ha): 0.0 | ECHCG herbicidal rating (ECHOG Barnyardgrass [23]; rate 0.062 kg/ha): 0.0 | ECHCG herbicidal rating (ECHOG Barnyardgrass [23]; rate 0.125 kg/ha): 4.0 | Postemergence herbicidal rating AMBEL (AMBEL Ragweed, Common [24]; 0.008 kg/ha): 7.0 | Postemergence herbicidal rating AMBEL (AMBEL Ragweed, Common [24]; 0.016 kg/ha): 9.0 | Postemergence herbicidal rating AMBEL (AMBEL Ragweed, Common [24]; 0.032 kg/ha): 9.0 | Postemergence herbicidal rating AMBEL (AMBEL Ragweed, Common [24]; 0.062 kg/ha): 9.0
